# Values of other authors in patent US11331392B2, “Biodegradable thermo-responsive polymers and uses thereof” (The Trustees of Columbia University in the City of New York, priority 2014, dated 2022).
# Test system: endothelial and tumor cells
compound,measurement,value
"Cc1cc(O)ccc1O [methylhydroquinone (MHQ), methylhydroquinone]",concentration range inhibiting growth of cells in culture,micromolar range
